Measurements published in patent US9101613B2, “Methods for treating neurological disease” (Neurim Pharmaceuticals (1991) Ltd., priority 2006, dated 2015).
Where two headings read alike, the source gives them in different places.

Legend:
CD1 mice [1] = assay: Potentiation of hexobarbital-Na sleep time in mice; type: in vivo; details: for effect on hexobarbital-Na narcosis time: 100 mg/kg i.p.; for Changes (%) vs. Vehicle (sleep time) / Mean Sleep Time-Treatment (min) ± SE: 100 mg/kg i.p. 15 min before 50 mg/kg hexobarbital-Na i.v.; for Mean Sleep Time-Treatment (min) ± SE: loss to recovery of righting reflex
Description: CD1 mice were divided randomly into groups of seven mice each. The mice in each group were administered intraperitoneally a dose of one of the following: 100 mg/kg of one of test substances O-[2-(5-methoxy-indol-3-yl)-ethyl]-comenic ester, N-[2-(5-methoxyindol-3-yl)-ethyl]-commenamide, N-[2-(5-methoxy-indol-3-yl)-ethyl]-coumalylamide, N-[2-(5-methoxy-indol-3-yl)-ethyl]-chelidonamide, N-[2-(5-methoxy-indol-3-yl)-ethyl]-comanilamide or N-[2-(5-methoxy-indol-3-yl)-ethyl]-2-methoxy-commenamide in saline (0.1 ml/10 g body weight), or saline alone. Fifteen minutes later the mice received a dose of 50 mg/kg of hexobarbital-Na intravenously. Sleep time was measured in each animal as the time from loss to recovery of the righting reflex.

MT-2 receptor = biological target: T1, MT-2 receptor (Homo sapiens, UniProt P49286); assay: 125I-melatonin binding in membranes of CHP-K1 cells, MT-2; details: for inhibition at 10 µM: read-out: MT-2 receptor binding % inhibition by 10 μM
T1 construct: expressed in transfected cells; host or cells: CHP-K1 (Chinese hamster ovary) cells (so in the source)
T1 sequence (P49286 1-362): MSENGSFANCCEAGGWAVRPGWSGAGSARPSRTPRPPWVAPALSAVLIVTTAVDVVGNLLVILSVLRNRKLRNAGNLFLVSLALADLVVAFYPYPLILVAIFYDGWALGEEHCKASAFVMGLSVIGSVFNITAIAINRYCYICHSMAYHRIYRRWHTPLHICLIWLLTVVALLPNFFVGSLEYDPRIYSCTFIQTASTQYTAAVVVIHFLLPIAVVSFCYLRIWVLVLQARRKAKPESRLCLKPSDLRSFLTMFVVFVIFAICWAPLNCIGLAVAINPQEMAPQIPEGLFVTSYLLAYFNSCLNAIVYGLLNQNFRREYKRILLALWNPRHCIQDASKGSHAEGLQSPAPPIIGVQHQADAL
Description: Aliquots of suspended membranes of human recombinant CHP-K1 (Chinese hamster ovary) cells stably expressing human melatonin-1 or melatonin-2 (MT-1 or MT-2) receptors or of hamster brain (MT-3) were incubated at 25° C. with 0.05 nM ^125I-melatonin in buffer (25 mM HEPES, pH 7.4, 5 mM MgCl2, 1 mM CaCl2, 0.5% BSA) or with 0.1 nM for MT-3 alone or in the presence of 1 nM, 10 nM, 0.1 μM, 1 μM and 10 μM of test substances N-[2-(5-methoxy-indol-3-yl)-ethyl]-commenamide, N-[2-(5-methoxy-indol-3-yl)-ethyl]-comanilamide, N-[2-(5-methoxy-indol-3-yl)-ethyl]-coumalylamide, N-[2-(5-methoxy-indol-3-yl)-ethyl]-2-methoxy-commenamide, N-[2-(5-methoxy-indol-3-yl)-ethyl]-chelidonamide, O-[2-(5-methoxy-indol-3-yl)-ethyl]-comenic ester, N-[2-(5-methoxy-indol-3-yl)-ethyl]-2-Pyrone-6-carboxamide and N-[2-(2-bromo-5-methoxy-indol-3-yl)-ethyl]-coumalylamide for 3 hours for MT-1, 4 hours for MT-2 and 30 min for MT-3. The binding reaction was terminated and the membranes were washed with 4 ml of ice-cold HEPES buffer by vacuum filtration. Membranes were then collected, and the filters containing the bound ^125I-melatonin were assayed for the amount of radioactivity in a […]. Non-specific binding was evaluated using a reaction with 1 μM 6-chloromelatonin (MT-1 and MT-2) or 30 μM melatonin (MT-3).

5-HT2B receptor = biological target: T2, 5-HT2B receptor (Homo sapiens, UniProt P41595); assay: Serotonin receptor binding, [3H] LSD, CHO-K1 membranes
T2 construct: expressed in transfected cells; host or cells: CHO-K1
Description: (§1) Aliquots of suspended membranes of human recombinant CHO-K1 cells stably expressing human 5-HT1A, 5-HT2A, 5-HT1B, 5-HT2B, 5-HT2C, 5-HT4, 5-HT6 or 5-HT7 receptors were pre-incubated at 25° C. with 1.5 nM [^3H] 8-OH-DPAT (5-HT1A), 1.5 nM [^3H] Ketanserin (5-HT2A), 0.01 nM [^125I] Cyanopindolol (5-HT1B), 1 nM [^3H] Mesulergine (5-HT2c), 0.7 nM [^3H] GR-113808 (5-HT4) or at 37° C. 1.2 nM [^3H] LSD (5-HT2B, 5-HT6 and 5-HT7) in buffer (50 mM Tris-HCl, pH 7.7) alone or in the presence of 1 nM, 10 nM, 0.1 μM, 1 μM, and 10 μM of N-[2-(5-methoxy-indol-3-yl)-ethyl]-commenamide, N-[2-(5-methoxy-indol-3-yl)-ethyl]-coumalylamide, N-[2-(5-methoxy-indol-3-yl)-ethyl]-comanilamide, N-[2-(5-methoxy-indol-3-yl)-ethyl]-2-methoxy-commenamide or N-[2-(5-methoxy-indol-3-yl)-ethyl]-chelidonamide for 60 minutes. The binding reaction was terminated and washed with 4 ml ice-cold 50 mM Tris-HCl buffer by vacuum filtration. Membranes were then collected, and the filters containing the bound ligands were assayed for the amount of radioactivity in a b-counter. Non-specific binding was evaluated using a reaction with 10 μM metergoline (5-HT1A), 1 μM mianserin (5-HT2A and 5-HT2c) or 10 μM serotonin (5-HT1B, 5-HT2B, 5-HT4, 5-HT6 and 5-HT7).

5-HT7 receptor = biological target: T3, 5-HT7 receptor (Homo sapiens, UniProt P34969); assay: as above
T3 construct: expressed in transfected cells; host or cells: CHO-K1
Description: as §1

CD1 mice [2] = assay: Motimeter assay (motor activity and rearing); type: in vivo; details: 100 mg/kg i.p.; for effect on motor activity and rearing: 30-35 min and 60-65 min after treatment
Description: Mice were starved for 16 hrs before treatment. Male CD1 mice, weighing 25-30 g, were treated intraperitoneally with melatonin, N-[2-(5-methoxy-indol-3-yl)-ethyl]-comanilamide or N-[2-(5-methoxy-indol-3-yl)-ethyl]-commenamide in a dose of 100 mg/kg. The horizontal (i.e. locomotion) and vertical (i.e. rearing) movements were measured for 5 minutes two times, 30 and 60 min after treatment. Eight mice/group were used. The 4-channel activity meter is a square-shaped frame containing transparent infra-red permeable acrylic cages. The frames feature two pairs of light-beam strips for measuring horizontal movements, and two pairs for measuring rearing. Each strip is equipped with 16 infra-red sensors.

[3] = 0.05 nM 125I-melatonin, 25° C., 4 hours, read-out: MT-2 receptor binding IC50
[4] = 0.05 nM 125I-melatonin, 25° C., 4 hours, read-out: MT-2 receptor binding KI

T2 sequence (P41595 whole entry): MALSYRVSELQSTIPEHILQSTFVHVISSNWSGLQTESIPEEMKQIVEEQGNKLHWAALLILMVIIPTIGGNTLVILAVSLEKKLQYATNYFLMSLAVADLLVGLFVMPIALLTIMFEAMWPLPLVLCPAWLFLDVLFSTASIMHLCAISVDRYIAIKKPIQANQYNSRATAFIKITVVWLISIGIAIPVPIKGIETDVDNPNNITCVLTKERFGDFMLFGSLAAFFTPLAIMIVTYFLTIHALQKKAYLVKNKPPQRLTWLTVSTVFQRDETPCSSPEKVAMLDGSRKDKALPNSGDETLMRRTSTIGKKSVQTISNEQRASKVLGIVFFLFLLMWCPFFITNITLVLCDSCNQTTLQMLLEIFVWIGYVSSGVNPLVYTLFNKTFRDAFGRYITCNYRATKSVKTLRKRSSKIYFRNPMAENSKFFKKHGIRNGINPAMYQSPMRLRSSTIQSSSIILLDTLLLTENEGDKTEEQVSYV
T3 sequence (P34969 whole entry): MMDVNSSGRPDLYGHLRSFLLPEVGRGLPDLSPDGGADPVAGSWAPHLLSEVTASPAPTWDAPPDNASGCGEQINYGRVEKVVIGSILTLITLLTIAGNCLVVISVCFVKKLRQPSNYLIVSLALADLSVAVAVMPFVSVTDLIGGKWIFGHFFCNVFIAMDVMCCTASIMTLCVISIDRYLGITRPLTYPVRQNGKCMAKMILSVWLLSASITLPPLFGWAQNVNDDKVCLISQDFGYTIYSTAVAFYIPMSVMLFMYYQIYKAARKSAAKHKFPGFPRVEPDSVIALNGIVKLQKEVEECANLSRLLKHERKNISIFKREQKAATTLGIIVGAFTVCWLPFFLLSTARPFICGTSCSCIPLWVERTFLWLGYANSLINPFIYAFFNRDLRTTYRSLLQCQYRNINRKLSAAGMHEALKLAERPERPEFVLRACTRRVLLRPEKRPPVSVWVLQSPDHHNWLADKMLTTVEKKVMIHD

Compound | effect on hexobarbital-Na narcosis time (CD1 mice [1]) | Changes (%) vs. Vehicle (sleep time) (CD1 mice [1]) | Mean Sleep Time-Treatment (min) ± SE (CD1 mice [1]) | IC50 (MT-2 receptor; [3]) | Ki (MT-2 receptor; [4]) | inhibition at 10 µM (MT-2 receptor; 10 μM, 0.05 nM 125I-melatonin) | IC50 (5-HT2B receptor; read-out: 5-HT2B IC50) | Ki (5-HT2B receptor; read-out: 5-HT2B KI) | affinity to 5-HT2B (5-HT2B receptor) | affinity to 5-HT7 (5-HT7 receptor) | IC50 (5-HT7 receptor; read-out: 5-HT7 IC50) | Ki (5-HT7 receptor; read-out: 5-HT7 KI) | affinity to MT-2 (MT-2 receptor) | effect on motor activity and rearing (CD1 mice [2]) | also measured
COc1ccc2[nH]cc(CCNC(=O)c3cc(=O)cc(C(=O)O)o3)c2c1 [N-[2-5-methoxy-indol-3-yl)-ethyl]-chelidonamide] | moderately increased the hexobarbital-Na narcosis time | +54% | 12.37 ± 1.85 min | 1.76 µM | 0.91 µM | 89% | 2.1 µM | 1.33 µM |  |  |  |  |  |  | 
COc1ccc2[nH]cc(CCNC(=O)c3cc(=O)c(OC)co3)c2c1 [N-[2-(5-methoxy-indol-3-yl)-ethyl]-2-methoxy-commenamide] |  | −21% | 7.70 ± 1.24 min | 0.826 µM | 0.429 µM | 93% | 1.76 µM | 1.12 µM | moderate affinity | moderate affinity | 0.735 µM | 0.42 µM |  |  | 
COc1ccc2[nH]cc(CCNC(=O)c3cc(=O)cco3)c2c1 [N-[2-(5-methoxy-indol-3-yl)-ethyl]-comanilamide] | moderately increased the hexobarbital-Na narcosis time | +49% | 17.52 ± 3.07 min | 0.065 µM | 0.034 µM | 100% | 6.78 µM | 4.32 µM |  |  |  |  | high affinity | did not change significantly the motor activity and rearing | 
COc1ccc2[nH]cc(CCNC(=O)c3cc(=O)c(O)co3)c2c1 [N-[2-(5-methoxy-indol-3-yl)-ethyl]-commenamide] | significantly increased the hexobarbital-Na narcosis time | +88% | 17.13 ± 8.06 min |  |  |  |  |  | moderate affinity | moderate affinity |  |  | high affinity | did not change significantly the motor activity and rearing | IC50 (MT-2 receptor): 0.013 µM; Ki (MT-2 receptor): 0.007 µM; inhibition at 10 µM (MT-2 receptor): 101%; IC50 (5-HT2B receptor): 2.25 µM; Ki (5-HT2B receptor): 1.43 µM; IC50 (5-HT7 receptor): 0.23 µM; Ki (5-HT7 receptor): 0.132 µM
COc1ccc2[nH]cc(CCNC(=O)c3ccc(=O)oc3)c2c1 [N-[2-(5-methoxy-indol-3-yl)-ethyl]-coumalylamide] | significantly increased the hexobarbital-Na narcosis time | +194% | 23.58 ± 3.19 min | 0.37 µM | 0.19 µM | 95% | 3 µM | 1.91 µM |  | moderate affinity | 0.664 µM | 0.381 µM |  | significantly decreased both the motor activity and rearing | motor activity (horizontal movement) changes (%) 30 min (CD1 mice [2]; 30 min, vs vehicle): −63.1%; motor activity (horizontal movement) 30 min Means ± SE (CD1 mice [2]; 30 min after treatment, 5 min measurement): 158.8 ± 37.0; motor activity (horizontal movement) changes (%) 60 min (CD1 mice [2]; 60 min, vs vehicle): −80.3%; motor activity (horizontal movement) 60 min Means ± SE (CD1 mice [2]; 60 min after treatment, 5 min measurement): 62.3 ± 16.6
